For 17 molecules, IC50 and Kd results are on record in patent US20180057507A1, “INHIBITORS OF DUAL LEUCINE ZIPPER (DLK) KINASE FOR THE TREATMENT OF DISEASE” (Board of Regents, The University of Texas System, priority 2016, published 2018).

Molecules are shown by their SMILES.

In general, IC50 refers to the point on the concentration scale where inhibition reaches its midpoint. Lower therefore signals higher potency. As a reminder, the Kd is the free concentration of one partner at which half of the binding sites on the other are occupied at equilibrium, for simple one-to-one binding. A higher Kd goes with weaker binding.

The target of assay [1] is T1, human DLK (Homo sapiens, UniProt Q12852).
T1 sequence (Q12852 1-859): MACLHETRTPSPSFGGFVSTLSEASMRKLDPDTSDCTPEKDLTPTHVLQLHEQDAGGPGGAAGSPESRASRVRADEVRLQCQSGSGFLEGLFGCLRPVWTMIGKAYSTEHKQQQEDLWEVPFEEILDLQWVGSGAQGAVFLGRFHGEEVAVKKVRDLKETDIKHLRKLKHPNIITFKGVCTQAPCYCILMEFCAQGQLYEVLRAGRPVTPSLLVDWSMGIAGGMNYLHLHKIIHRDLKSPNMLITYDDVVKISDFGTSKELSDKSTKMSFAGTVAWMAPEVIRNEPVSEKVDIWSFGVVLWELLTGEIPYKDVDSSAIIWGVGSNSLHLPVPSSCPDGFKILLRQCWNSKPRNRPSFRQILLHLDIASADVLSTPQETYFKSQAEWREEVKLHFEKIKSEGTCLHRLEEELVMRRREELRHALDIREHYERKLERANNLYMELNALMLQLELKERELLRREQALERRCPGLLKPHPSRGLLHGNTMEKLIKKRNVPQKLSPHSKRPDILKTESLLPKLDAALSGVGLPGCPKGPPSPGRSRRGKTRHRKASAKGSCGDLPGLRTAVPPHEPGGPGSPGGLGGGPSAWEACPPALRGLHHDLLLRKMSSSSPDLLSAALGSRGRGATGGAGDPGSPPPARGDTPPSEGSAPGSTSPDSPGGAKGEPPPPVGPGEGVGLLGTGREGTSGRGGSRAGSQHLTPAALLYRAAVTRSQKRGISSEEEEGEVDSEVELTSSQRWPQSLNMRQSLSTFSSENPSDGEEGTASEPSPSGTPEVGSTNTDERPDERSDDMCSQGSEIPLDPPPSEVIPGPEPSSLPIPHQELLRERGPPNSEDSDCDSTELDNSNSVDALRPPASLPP
Briefly: Phospho-cJun Cellular Assay. On the set-up: expressed in transfected cells. The format is cell-based. The settings on record: HEK293 cells stably transfected with Dox-inducible human DLK; p-cJun (Ser63); 5 h compound incubation. How it is done:
Phospho-cJun Cellular Assay
HEK293 cells stably transfected with a Dox-inducible human DLK were plated into a 384-well plate in 20 μl (40,000 cells/well) of DMEM medium (without phenol red) containing 10% fetal bovine serum, 1.5 μg/ml doxycycline and 1 μg/ml puromycin. The cells as negative control were grown in the absence of doxycycline. The plate was incubated at 37° C., 5% CO2 for 20 h, before DMSO (control) or compounds diluted in medium were added. The cells were incubated at 37° C. for an additional 5 h, followed by lysis and the addition detection antibodies from p-cJun (Ser63) cellular assay kit (Cisbio) per manufacturer protocol. The standard dose response curves were fitted by Genedata Screener software using the variable-slope model: Signal=Signalnegative control+(SignalDMSO control−Signalnegative control)/(1+(IC50/Dose)̂Hill slope). Only signal and dose in the equation were treated as known values.

The target of assay [2] is T1, human DLK. Put plainly: DLK Kd Determinations (KINOMEscan KdELECT, DiscoveRx). Set-up: full length of human DLK (amino acids 1-859); host or cells: transiently transfected HEK293 cells; unpurified extract. The conditions noted are these: fusion protein of full length human DLK (amino acids 1-859) and NFkB DNA binding domain; qPCR readout; duplicate. An outline of the steps:
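Kd values were fitted by Hill equation (slope −1) from duplicate 11-point 3-fold dilutions starting at 30,000 nM. Bead-immobilized ligand competed with compound for DNA-tagged full-length human DLK fusion in HEK293 extract (final DMSO 0.9%, 1 h, room temperature), with qPCR readout of bound kinase.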
(In qPCR the cycle at which signal appears reflects the starting amount.)

In turn, `C[C@H]1COCCN1C1C[C@@H]2[C@H](C1)[C@H]2n1cc(-c2cnc(N)c(C(F)(F)F)c2)nc1C1CC1` (single isomer, unassigned) [Example 140a] gave an IC50 against human DLK [1] of 834 nM. In addition, the Kd at human DLK [2] is 32 nM.

`C[C@H]1COCCN1C1C[C@@H]2[C@H](C1)[C@H]2n1cc(-c2cnc(N)c(C(F)(F)F)c2)nc1C1CC1` (single isomer, unassigned) [Example 140b] had an IC50 against human DLK [1] of 636 nM. At human DLK [2], this molecule came in with a Kd of 37.5 nM.

Take `Nc1ncc(-c2cn([C@H]3[C@@H]4CC(N5CCCOCC5)C[C@@H]43)c(C3CC3)n2)cc1C(F)(F)F` (single isomer, unassigned) [Example 141a, 5-(1-(3-(1,4-oxazepan-4-yl)bicyclo[3.1.0]hexan-6-yl)-2-cyclopropyl-1H-imidazol-4-yl)-3-(trifluoromethyl)pyridin-2-amine]: the IC50 on human DLK [1] was found to be 655 nM. On human DLK [2], this molecule registered a Kd of 26 nM.

`Nc1ncc(-c2cn([C@H]3[C@@H]4CC(N5CCCOCC5)C[C@@H]43)c(C3CC3)n2)cc1C(F)(F)F` (single isomer, unassigned) [Example 141b, 5-(1-(3-(1,4-oxazepan-4-yl)bicyclo[3.1.0]hexan-6-yl)-2-cyclopropyl-1H-imidazol-4-yl)-3-(trifluoromethyl)pyridin-2-amine]: 587 nM corresponded to half-maximal inhibition at human DLK [1] (IC50). On human DLK [2], the equilibrium dissociation constant (Kd) turned out to be 16 nM.

Molecule `CC(C)c1nc(-c2cnc(N)c(OC(F)F)c2)cn1[C@H]1[C@@H]2CC(N3CCN(C)CC3)C[C@@H]21` (single isomer, unassigned) [Example 145a, 3-(difluoromethoxy)-5-(2-isopropyl-1-(3-(4-methylpiperazin-1-yl)bicyclo[3.1.0]hexan-6-yl)-1H-imidazol-4-yl)pyridin-2-amine] registered an IC50 against human DLK [1] of 1200 nM. Besides, the Kd at human DLK [2] came out at 39 nM.

In the case of `CC(C)c1nc(-c2cnc(N)c(OC(F)F)c2)cn1[C@H]1[C@@H]2CC(N3CCN(C)CC3)C[C@@H]21` (single isomer, unassigned) [Example 145b, 3-(difluoromethoxy)-5-(2-isopropyl-1-(3-(4-methylpiperazin-1-yl)bicyclo[3.1.0]hexan-6-yl)-1H-imidazol-4-yl)pyridin-2-amine], half-maximal inhibition against human DLK [1] (IC50) required 889 nM. This molecule displayed a Kd on human DLK [2] of 50 nM.

`CC(C)Cc1nc(-c2cnc(N)c(C(F)(F)F)c2)cn1[C@H]1[C@@H]2CC(N3CCN(C)CC3)C[C@@H]21` (single isomer, unassigned) [Example 146a, 5-(2-isobutyl-1-(3-(4-methylpiperazin-1-yl)bicyclo[3.1.0]hexan-6-yl)-1H-imidazol-4-yl)-3-(trifluoromethyl)pyridin-2-amine] gave an IC50 against human DLK [1] of 376 nM. On human DLK [2], this molecule had a Kd of 6.5 nM.

Turning to `CC(C)Cc1nc(-c2cnc(N)c(C(F)(F)F)c2)cn1[C@H]1[C@@H]2CC(N3CCN(C)CC3)C[C@@H]21` (single isomer, unassigned) [Example 146b, 5-(2-isobutyl-1-(3-(4-methylpiperazin-1-yl)bicyclo[3.1.0]hexan-6-yl)-1H-imidazol-4-yl)-3-(trifluoromethyl)pyridin-2-amine], the IC50 against human DLK [1] stood at 346 nM. Also, binding on human DLK [2] was characterised by a dissociation constant (Kd) of 4.5 nM.

For the molecule `CN1CCN(C2C[C@@H]3[C@H](C2)[C@H]3n2cc(-c3cnc(N)c(OC(F)(F)F)c3)nc2CC2CC2)CC1` (single isomer, unassigned) [Example 151a, 5-(2-(cyclopropylmethyl)-1-(3-(4-methylpiperazin-1-yl)bicyclo[3.1.0]hexan-6-yl)-1H-imidazol-4-yl)-3-(trifluoromethoxy)pyridin-2-amine], the IC50 at human DLK [1] was 994 nM. The affinity at human DLK [2], expressed as Kd, was 26 nM.

The molecule `CN1CCN(C2C[C@@H]3[C@H](C2)[C@H]3n2cc(-c3cnc(N)c(OC(F)(F)F)c3)nc2CC2CC2)CC1` (single isomer, unassigned) [Example 151b, 5-(2-(cyclopropylmethyl)-1-(3-(4-methylpiperazin-1-yl)bicyclo[3.1.0]hexan-6-yl)-1H-imidazol-4-yl)-3-(trifluoromethoxy)pyridin-2-amine] showed an IC50 on human DLK [1] of 826 nM. This molecule had a Kd at human DLK [2] of 20 nM.

As for `Nc1ncc(-c2cn([C@H]3[C@@H]4CC(N5CCN(CCF)CC5)C[C@@H]43)c(CC3CC3)n2)cc1OC(F)(F)F` (single isomer, unassigned) [Example 152a, 5-(2-(cyclopropylmethyl)-1-(3-(4-(2-fluoroethyl)piperazin-1-yl)bicyclo[3.1.0]hexan-6-yl)-1H-imidazol-4-yl)-3-(trifluoromethoxy)pyridin-2-amine], inhibition against human DLK [1] was half-maximal at 1350 nM (IC50). Moreover, the Kd on human DLK [2] came out at 37 nM.

Turning to `Nc1ncc(-c2cn([C@H]3[C@@H]4CC(N5CCN(CCF)CC5)C[C@@H]43)c(CC3CC3)n2)cc1OC(F)(F)F` (single isomer, unassigned) [Example 152b, 5-(2-(cyclopropylmethyl)-1-(3-(4-(2-fluoroethyl)piperazin-1-yl)bicyclo[3.1.0]hexan-6-yl)-1H-imidazol-4-yl)-3-(trifluoromethoxy)pyridin-2-amine], the IC50 against human DLK [1] is 1150 nM. The molecule also came in with a Kd on human DLK [2] of 13 nM.

On human DLK [1], `Nc1ncc(-c2cn([C@H]3[C@@H]4CC(N5CCN(CCF)CC5)C[C@@H]43)c(C3CC3)n2)cc1C(F)(F)F` (single isomer, unassigned) [Example 153a, 5-(2-cyclopropyl-1-(3-(4-(2-fluoroethyl)piperazin-1-yl)bicyclo[3.1.0]hexan-6-yl)-1H-imidazol-4-yl)-3-(trifluoromethyl)pyridin-2-amine] registered an IC50 of 891 nM. This molecule also had a Kd at human DLK [2] of 22 nM.

As to `Nc1ncc(-c2cn([C@H]3[C@@H]4CC(N5CCN(CCF)CC5)C[C@@H]43)c(C3CC3)n2)cc1C(F)(F)F` (single isomer, unassigned) [Example 153b, 5-(2-cyclopropyl-1-(3-(4-(2-fluoroethyl)piperazin-1-yl)bicyclo[3.1.0]hexan-6-yl)-1H-imidazol-4-yl)-3-(trifluoromethyl)pyridin-2-amine], inhibition at human DLK [1] was half-maximal at 809 nM (IC50). Also, at human DLK [2], the Kd is 9 nM.

On human DLK [1], `Nc1ncc(-c2cn([C@H]3[C@@H]4CC(N5CCN(CCF)CC5)C[C@@H]43)c(C3CC3)n2)cc1OC(F)(F)F` (single isomer, unassigned) [Example 154a, 5-(2-cyclopropyl-1-(3-(4-(2-fluoroethyl)piperazin-1-yl)bicyclo[3.1.0]hexan-6-yl)-1H-imidazol-4-yl)-3-(trifluoromethoxy)pyridin-2-amine] had an IC50 of 761 nM. Besides, binding at human DLK [2] was put at a Kd of 28 nM.

Regarding `Nc1ncc(-c2cn([C@H]3[C@@H]4CC(N5CCN(CCF)CC5)C[C@@H]43)c(C3CC3)n2)cc1OC(F)(F)F` (single isomer, unassigned) [Example 154b, 5-(2-cyclopropyl-1-(3-(4-(2-fluoroethyl)piperazin-1-yl)bicyclo[3.1.0]hexan-6-yl)-1H-imidazol-4-yl)-3-(trifluoromethoxy)pyridin-2-amine], the IC50 against human DLK [1] was determined as 597 nM. The molecule further gave a Kd at human DLK [2] of 17 nM.

In the case of `CC(C)c1nc(-c2cnc(N)c(C(F)(F)F)c2)cn1[C@H]1[C@@H]2CC(N3CCN(CCF)CC3)C[C@@H]21` (single isomer, unassigned) [Example 155a, 5-(1-(3-(4-(2-fluoroethyl)piperazin-1-yl)bicyclo[3.1.0]hexan-6-yl)-2-isopropyl-1H-imidazol-4-yl)-3-(trifluoromethyl)pyridin-2-amine], at human DLK [1], it took 1190 nM to reach half-maximal inhibition (IC50). The molecule further registered a Kd on human DLK [2] of 23 nM.
